Where two headings read alike, the source gives them in different places.
Tests used:
[1] = tested on: SHV-5 ec308; format: cell-based; details: minimum BLI concentration inhibiting growth with tigemonam at 4 μg/mL
[2] = tested on: ECL1002; format: cell-based; details: minimum BLI concentration inhibiting growth with tigemonam at 4 μg/mL
[3] = tested on: KPC-2 KP1004; experiment: Aztreonam potentiation (MPC@4); format: cell-based; details: minimum BLI concentration inhibiting growth with 4 μg/mL aztreonam
[4] = tested on: SHV-5 ec308; experiment: Aztreonam potentiation (MPC@4); format: cell-based; details: minimum BLI concentration inhibiting growth with 4 μg/mL aztreonam
[5] = tested on: ECL1002; experiment: Aztreonam potentiation (MPC@4); format: cell-based; details: minimum BLI concentration inhibiting growth with 4 μg/mL aztreonam
[6] = target: SHV-12 (Klebsiella pneumoniae, UniProt P0AD64, E235K/G234S/L31Q); experiment: Inhibition of nitrocefin cleavage by purified enzyme (Ki); format: biochemical; details: nitrocefin reporter substrate, 10 min preincubation; read-out: Ki (SHV-12, NCF)
Experimental: Purified enzymes were mixed with various concentrations of inhibitors in reaction buffer and incubated for 10 min at room temperature. Nitrocefin was added and substrate cleavage profiles were recorded at 490 nm every 10 sec for 10 min.

[7] = tested on: CTX-M-14 KP1005; format: cell-based
[8] = tested on: KP1004 KPC-2; experiment: Biapenem potentiation (MPC@1); format: cell-based; details: minimum BLI concentration inhibiting growth with 1 μg/mL biapenem
Experimental: (§1) Biapenem was present in the test medium at 1 μg/mL. […] Table 3 summarizes the BLI potency of biapenem potentiation (MPC@1) for two strains overexpressing class A (KPC) and class D (OXA-48) carbapenemases. Biapenem MIC for each strain is also shown.

[9] = tested on: OXA-48 KP1086; experiment: Biapenem potentiation (MPC@1); format: cell-based; details: minimum BLI concentration inhibiting growth with 1 μg/mL biapenem
Experimental: as §1

[10] = tested on: CTX-M-15 KP1009; format: cell-based
[11] = minimum BLI concentration inhibiting growth with tigemonam at 4 μg/mL

SHV-12, sequence (P0AD64 22-286 L31Q/G234S/E235K): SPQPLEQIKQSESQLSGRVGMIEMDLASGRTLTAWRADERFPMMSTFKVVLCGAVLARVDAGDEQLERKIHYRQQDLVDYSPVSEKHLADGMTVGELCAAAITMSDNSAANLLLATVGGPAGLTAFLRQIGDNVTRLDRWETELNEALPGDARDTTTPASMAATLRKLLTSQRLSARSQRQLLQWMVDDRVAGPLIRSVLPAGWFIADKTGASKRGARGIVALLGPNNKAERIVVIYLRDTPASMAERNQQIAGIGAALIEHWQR

| SMILES | TIG MPC4 SHV-5 ec308 [1] | TIG MPC4 ECL1002 [2] | AZT MPC4 KPC-2 KP1004 [3] | AZT MPC4 SHV-5 ec308 [4] | AZT MPC4 ECL1002 [5] | Ki [6] | TIG MPC4 CTX-M-14 KP1005 [7] | BPM MPC1 KP1004 KPC-2 [8] | BPM MPC1 OXA-48 KP1086 [9] | TIG MPC4 CTX-M-15 KP1009 [10] | TIG MPC4 CTX-M-14 KP1005 [7, 11] | TIG MPC4 CTX-M-15 KP1009 [10, 11] |
| --- | --- | --- | --- | --- | --- | --- | --- | --- | --- | --- | --- | --- |
| O=C(N[C@H]1Cc2cccc(C(=O)O)c2OB1O)c1cncc(F)c1 [Compound 14, (R)-3-(5-fluoronicotinamido)-2-hydroxy-3,4-dihydro-2H-benzo[e][1,2]oxaborinine-8-carboxylic acid] | Y (MIC of 1 μg/mL to 10 μg/mL) | Y (MIC of 1 μg/mL to 10 μg/mL) | Y (MIC of 1 μg/mL to 10 μg/mL) | Y (MIC of 1 μg/mL to 10 μg/mL) | Y (MIC of 1 μg/mL to 10 μg/mL) | < 1 nM | Y (key: X: MIC of less than 1 μg/mL; Y: MIC of 1 μg/mL to 10 μg/mL; Z: MIC of greater than 10 μg/mL) | X (MIC of less than 1 μg/mL) | Y (MIC of 1 μg/mL to 10 μg/mL) | Y (key: X: MIC of less than 1 μg/mL; Y: MIC of 1 μg/mL to 10 μg/mL; Z: MIC of greater than 10 μg/mL) | – | – |
| Cn1nnnc1SCC(=O)N[C@H]1Cc2cccc(C(=O)O)c2OB1O [Compound 2, (R)-2-hydroxy-3-(2-(1-methyl-1H-tetrazol-5-ylthio)acetamido)-3,4-dihydro-2H-benzo[e][1,2]oxaborinine-8-carboxylic acid] | X (MIC of less than 1 μg/mL) | X (MIC of less than 1 μg/mL) | Y (MIC of 1 μg/mL to 10 μg/mL) | X (MIC of less than 1 μg/mL) | Y (MIC of 1 μg/mL to 10 μg/mL) | < 1 nM | X (key: X: MIC of less than 1 μg/mL; Y: MIC of 1 μg/mL to 10 μg/mL; Z: MIC of greater than 10 μg/mL) | X (MIC of less than 1 μg/mL) | Y (MIC of 1 μg/mL to 10 μg/mL) | Y (key: X: MIC of less than 1 μg/mL; Y: MIC of 1 μg/mL to 10 μg/mL; Z: MIC of greater than 10 μg/mL) | – | – |
| O=C(CSC(F)(F)F)N[C@H]1Cc2cccc(C(=O)O)c2OB1O [Compound 1, (R)-2-hydroxy-3-(2-(trifluoromethylthio)acetamido)-3,4-dihydro-2H-benzo[e][1,2]oxaborinine-8-carboxylic acid] | X (MIC of less than 1 μg/mL) | X (MIC of less than 1 μg/mL) | Y (MIC of 1 μg/mL to 10 μg/mL) | X (MIC of less than 1 μg/mL) | Y (MIC of 1 μg/mL to 10 μg/mL) | < 1 nM | – | X (MIC of less than 1 μg/mL) | Y (MIC of 1 μg/mL to 10 μg/mL) | – | Y (MIC of 1 μg/mL to 10 μg/mL) | Y (MIC of 1 μg/mL to 10 μg/mL) |
| NC(=O)C(=O)N[C@H]1Cc2cccc(C(=O)O)c2OB1O [Compound 17, (R)-3-(2-amino-2-oxoacetamido)-2-hydroxy-3,4-dihydro-2H-benzo[e][1,2]oxaborinine-8-carboxylic acid] | Y (MIC of 1 μg/mL to 10 μg/mL) | Y (MIC of 1 μg/mL to 10 μg/mL) | Y (MIC of 1 μg/mL to 10 μg/mL) | X (MIC of less than 1 μg/mL) | Y (MIC of 1 μg/mL to 10 μg/mL) | 1 to 10 nM | Z (key: X: MIC of less than 1 μg/mL; Y: MIC of 1 μg/mL to 10 μg/mL; Z: MIC of greater than 10 μg/mL) | X (MIC of less than 1 μg/mL) | Y (MIC of 1 μg/mL to 10 μg/mL) | Y (key: X: MIC of less than 1 μg/mL; Y: MIC of 1 μg/mL to 10 μg/mL; Z: MIC of greater than 10 μg/mL) | – | – |
| NC(=O)N[C@H]1Cc2cccc(C(=O)O)c2OB1O [Compound 6, (R)-2-hydroxy-3-ureido-3,4-dihydro-2H-benzo[e][1,2]oxaborinine-8-carboxylic acid] | Z (MIC of greater than 10 μg/mL) | Y (MIC of 1 μg/mL to 10 μg/mL) | X (MIC of less than 1 μg/mL) | Y (MIC of 1 μg/mL to 10 μg/mL) | Z (MIC of greater than 10 μg/mL) | 1 to 10 nM | Z (key: X: MIC of less than 1 μg/mL; Y: MIC of 1 μg/mL to 10 μg/mL; Z: MIC of greater than 10 μg/mL) | X (MIC of less than 1 μg/mL) | Y (MIC of 1 μg/mL to 10 μg/mL) | Y (key: X: MIC of less than 1 μg/mL; Y: MIC of 1 μg/mL to 10 μg/mL; Z: MIC of greater than 10 μg/mL) | – | – |
| O=C(N[C@H]1Cc2cccc(C(=O)O)c2OB1O)c1cncs1 [Compound 15, (R)-2-hydroxy-3-(thiazole-5-carboxamido)-3,4-dihydro-2H-benzo[e][1,2]oxaborinine-8-carboxylic acid] | Y (MIC of 1 μg/mL to 10 μg/mL) | Y (MIC of 1 μg/mL to 10 μg/mL) | Y (MIC of 1 μg/mL to 10 μg/mL) | X (MIC of less than 1 μg/mL) | Y (MIC of 1 μg/mL to 10 μg/mL) | < 1 nM | Y (key: X: MIC of less than 1 μg/mL; Y: MIC of 1 μg/mL to 10 μg/mL; Z: MIC of greater than 10 μg/mL) | X (MIC of less than 1 μg/mL) | Y (MIC of 1 μg/mL to 10 μg/mL) | Y (key: X: MIC of less than 1 μg/mL; Y: MIC of 1 μg/mL to 10 μg/mL; Z: MIC of greater than 10 μg/mL) | – | – |
| CN(C)C(=O)CC(=O)N[C@H]1Cc2cccc(C(=O)O)c2OB1O [Compound 10, (R)-3-(3-(dimethylamino)-3-oxopropanamido)-2-hydroxy-3,4-dihydro-2H-benzo[e][1,2]oxaborinine-8-carboxylic acid] | Y (MIC of 1 μg/mL to 10 μg/mL) | X (MIC of less than 1 μg/mL) | X (MIC of less than 1 μg/mL) | Y (MIC of 1 μg/mL to 10 μg/mL) | Y (MIC of 1 μg/mL to 10 μg/mL) | < 1 nM | Y (key: X: MIC of less than 1 μg/mL; Y: MIC of 1 μg/mL to 10 μg/mL; Z: MIC of greater than 10 μg/mL) | X (MIC of less than 1 μg/mL) | Y (MIC of 1 μg/mL to 10 μg/mL) | X (key: X: MIC of less than 1 μg/mL; Y: MIC of 1 μg/mL to 10 μg/mL; Z: MIC of greater than 10 μg/mL) | – | – |
| O=C(COCc1ccccc1)N[C@H]1Cc2cccc(C(=O)O)c2OB1O [CPD B, reference compound] | Y (MIC of 1 μg/mL to 10 μg/mL) | Y (MIC of 1 μg/mL to 10 μg/mL) | Z (MIC of greater than 10 μg/mL) | Y (MIC of 1 μg/mL to 10 μg/mL) | Z (MIC of greater than 10 μg/mL) | < 1 nM | Z (key: X: MIC of less than 1 μg/mL; Y: MIC of 1 μg/mL to 10 μg/mL; Z: MIC of greater than 10 μg/mL) | X (MIC of less than 1 μg/mL) | Z (MIC of greater than 10 μg/mL) | Z (key: X: MIC of less than 1 μg/mL; Y: MIC of 1 μg/mL to 10 μg/mL; Z: MIC of greater than 10 μg/mL) | – | – |
| CN(C)C(=O)C(=O)N[C@H]1Cc2cccc(C(=O)O)c2OB1O [Compound 9, (R)-3-(2-(dimethylamino)-2-oxoacetamido)-2-hydroxy-3,4-dihydro-2H-benzo[e][1,2]oxaborinine-8-carboxylic acid] | Y (MIC of 1 μg/mL to 10 μg/mL) | Y (MIC of 1 μg/mL to 10 μg/mL) | Y (MIC of 1 μg/mL to 10 μg/mL) | X (MIC of less than 1 μg/mL) | Y (MIC of 1 μg/mL to 10 μg/mL) | – | Y (key: X: MIC of less than 1 μg/mL; Y: MIC of 1 μg/mL to 10 μg/mL; Z: MIC of greater than 10 μg/mL) | X (MIC of less than 1 μg/mL) | Z (MIC of greater than 10 μg/mL) | Y (key: X: MIC of less than 1 μg/mL; Y: MIC of 1 μg/mL to 10 μg/mL; Z: MIC of greater than 10 μg/mL) | – | – |

— patent US9642869B2, “Boronic acid derivatives and therapeutic uses thereof” (Rempex Pharmaceuticals, Inc., priority 2013, dated 2017)
